Source: ChEMBL document CHEMBL3885861, “Open TG-GATES”

Species: Rattus norvegicus
Test: Open TG-GATES - Regimen: Daily Repeat
Type: toxicity, organism-based, Sprague-Dawley
Parameters: regimen Daily Repeat, gender Male, age 6 weeks
Conditions: in vivo, po, 100 mg/kg, route gavage, dose level Low; for APTT / Bas / Eos / Fbg / Hb / Ht / Lym / MCH / MCHC / MCV / Mono / Neu / PT / Plat / RBC / Ret / WBC: tissue Blood
[1] = 72 h, tissue Kidney, time 3 day
[2] = 72 h, tissue Plasma, time 3 day

O=C(O)c1cc(/N=N/c2ccc(S(=O)(=O)Nc3ccccn3)cc2)ccc1O [SULFASALAZINE]
TERMINAL_BW (72 h, time 3 day): 236.6 g | APTT (72 h, time 3 day): 18.4 s | Bas (72 h, time 3 day): 0% | Eos (72 h, time 3 day): 1% | Fbg (72 h, time 3 day): 226.6 mg/dL | Hb (72 h, time 3 day): 13.6 g/dL | Ht (72 h, time 3 day): 39.7% | Lym (72 h, time 3 day): 79.8% | MCH (72 h, time 3 day): 21.5 pg | MCHC (72 h, time 3 day): 34.3% | MCV (72 h, time 3 day): 62.6 fL | Mono (72 h, time 3 day): 3.2% | Neu (72 h, time 3 day): 14.4% | PT (72 h, time 3 day): 12.6 s | Plat (72 h, time 3 day): 129.7 x10_4/uL | RBC (72 h, time 3 day): 634.2 x10_4/ul | Ret (72 h, time 3 day): 6.4% | WBC (72 h, time 3 day): 114.1 x10_2/uL | KIDNEY_L [1]: 1 g | KIDNEY_R [1]: 1 g | KIDNEY_TOTAL [1]: 2 g | LIVER (72 h, tissue Liver, time 3 day): 10.9 g | A/G [2]: 1.5 | ALP [2]: 979.2 IU/L | ALT [2]: 44.4 IU/L | AST [2]: 86.8 IU/L | BUN [2]: 16.4 mg/dL | CRE [2]: 0.4 mg/dL | Ca [2]: 10.9 mg/dL | Cl [2]: 103 meq/L | DBIL [2]: 0.09 mg/dL | GLC [2]: 201 mg/dL | IP [2]: 7.4 mg/dL | K [2]: 4.2 meq/L | LDH [2]: 286.8 IU/L | Na [2]: 140.4 meq/L | PL [2]: 154.6 mg/dL | RALB [2]: 3.3 g/dL | TBIL [2]: 0.1 mg/dL | TC [2]: 76.8 mg/dL | TG [2]: 83.4 mg/dL | TP [2]: 5.6 g/dL | gamma-GTP [2]: 1.4 IU/L | TERMINAL_BW ([…], time 7 day): 262.7 g | TERMINAL_BW ([…], time 14 day): 309.6 g | TERMINAL_BW ([…], time 28 day): 389.8 g | APTT ([…], time 7 day): 19.1 s | Bas ([…], time 7 day): 0% | Eos ([…], time 7 day): 1% | Fbg ([…], time 7 day): 216.2 mg/dL | Hb ([…], time 7 day): 13.8 g/dL | Ht ([…], time 7 day): 39.9% | Lym ([…], time 7 day): 82% | MCH ([…], time 7 day): 21.1 pg | MCHC ([…], time 7 day): 34.5% | MCV ([…], time 7 day): 61.3 fL | Mono ([…], time 7 day): 1.8% | Neu ([…], time 7 day): 13.6% | PT ([…], time 7 day): 12.5 s | Plat ([…], time 7 day): 116 x10_4/uL | RBC ([…], time 7 day): 651.8 x10_4/ul | Ret ([…], time 7 day): 5.1% | WBC ([…], time 7 day): 110 x10_2/uL | APTT ([…], time 14 day): 19.4 s | Bas ([…], time 14 day): 0% | Eos ([…], time 14 day): 1% | Fbg ([…], time 14 day): 214 mg/dL | Hb ([…], time 14 day): 14.5 g/dL | Ht ([…], time 14 day): 41.3% | Lym ([…], time 14 day): 79.2% | MCH ([…], time 14 day): 21.2 pg | MCHC ([…], time 14 day): 35.1% | MCV ([…], time 14 day): 60.4 fL | Mono ([…], time 14 day): 2.6% | Neu ([…], time 14 day): 16.2% | PT ([…], time 14 day): 12.5 s | Plat ([…], time 14 day): 107.7 x10_4/uL | RBC ([…], time 14 day): 684.4 x10_4/ul | Ret ([…], time 14 day): 4.6% | WBC ([…], time 14 day): 116.3 x10_2/uL | APTT ([…], time 28 day): 19.7 s | Bas ([…], time 28 day): 0% | Eos ([…], time 28 day): 1% | Fbg ([…], time 28 day): 231 mg/dL | Hb ([…], time 28 day): 15.1 g/dL | Ht ([…], time 28 day): 42.4%
